Measurements from PubChem BioAssay AID1963443 (Molecular Pharmacology Branch, DTP, NCI, 2024).
Each block holds one molecule with its values, some of them ahead of it.

Test system: MDA-MB-231 complex spheroids, growth inhibition
Test: Anticancer human tumor MDA-MB-231 cell line growth inhibition [Asc];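 note: spheroids exposed to compounds for 7 days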
Conditions: for IC50: curve of first compound; for viability, T/C: stronger effect = lower value
Procedure, shortened: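 Complex solid-tumor spheroids incorporating human endothelial and mesenchymal stem cells received single agents or combinations over half-log dilution ranges anchored to clinical Cmax.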

[1] = second compound 0.1 µM, first compound 0.00949 µM
[2] = second compound 0.1 µM, first compound 0.03 µM
[3] = second compound 0.1 µM, first compound 0.0949 µM
[4] = second compound 0.1 µM, first compound 0.3 µM
[5] = second compound 0.316 µM, first compound 0.00949 µM
[6] = second compound 0.316 µM, first compound 0.03 µM
[7] = second compound 0.316 µM, first compound 0.0949 µM
[8] = second compound 0.316 µM, first compound 0.3 µM
[9] = second compound 1 µM, first compound 0.00949 µM
[10] = second compound 1 µM, first compound 0.03 µM
[11] = second compound 1 µM, first compound 0.0949 µM
[12] = second compound 1 µM, first compound 0.3 µM
[13] = second compound 3.16 µM, first compound 0.00949 µM
[14] = second compound 3.16 µM, first compound 0.03 µM
[15] = second compound 3.16 µM, first compound 0.0949 µM
[16] = second compound 3.16 µM, first compound 0.3 µM
[17] = second compound 10 µM, first compound 0.00949 µM
[18] = second compound 10 µM, first compound 0.03 µM
[19] = second compound 10 µM, first compound 0.0949 µM
[20] = second compound 10 µM, first compound 0.3 µM

IC50 (second compound 0.1 µM): < 3.16 nM
IC50 (second compound 0.316 µM): < 3.16 nM
IC50 (second compound 1 µM): < 3.16 nM
IC50 (second compound 3.16 µM): < 3.16 nM
IC50 (second compound 10 µM): < 3.16 nM
Compound: CNC(C)C(=O)NC1CN(S(=O)(=O)c2cccc(S(=O)(=O)N3CCC4CCC(C(=O)NC(c5ccccc5)c5ccccc5)N4C(=O)C(NC(=O)C(C)NC)C3)c2)CCC2CCC(C(=O)NC(c3ccccc3)c3ccccc3)N2C1=O (stereo not given) + Cc1c(S(C)(=O)=O)c(-c2cc(F)cc(N3CCN(c4ccc(NS(=O)(=O)c5ccc(NC(CCN6CCC(C(=O)OCCCP(=O)(O)O)CC6)CSc6ccccc6)c(S(=O)(=O)C(F)(F)F)c5)cc4)CC3)c2)c(-c2ccc(Cl)cc2)n1C(C)C
viability, T/C (second compound 0.1 µM, first compound 0.00316 µM): 2.88%
viability, T/C (second compound 0.1 µM, first compound 0.01 µM): 0.95%
viability, T/C (second compound 0.1 µM, first compound 0.0316 µM): 0.9%
viability, T/C (second compound 0.1 µM, first compound 0.1 µM): 0.67%
viability, T/C (second compound 0.1 µM, first compound 0.316 µM): 0.5%
viability, T/C (second compound 0.1 µM, first compound 1 µM): 0.72%
viability, T/C (second compound 0.316 µM, first compound 0.00316 µM): 2.6%
viability, T/C (second compound 0.316 µM, first compound 0.01 µM): 0.97%
viability, T/C (second compound 0.316 µM, first compound 0.0316 µM): 0.75%
viability, T/C (second compound 0.316 µM, first compound 0.1 µM): 0.41%
viability, T/C (second compound 0.316 µM, first compound 0.316 µM): 0.53%
viability, T/C (second compound 0.316 µM, first compound 1 µM): 0.56%
viability, T/C (second compound 1 µM, first compound 0.00316 µM): 2.07%
viability, T/C (second compound 1 µM, first compound 0.01 µM): 0.62%
viability, T/C (second compound 1 µM, first compound 0.0316 µM): 0.54%
viability, T/C (second compound 1 µM, first compound 0.1 µM): 0.29%
viability, T/C (second compound 1 µM, first compound 0.316 µM): 0.35%
viability, T/C (second compound 1 µM, first compound 1 µM): 0.9%
viability, T/C (second compound 3.16 µM, first compound 0.00316 µM): 1.77%
viability, T/C (second compound 3.16 µM, first compound 0.01 µM): 0.46%
viability, T/C (second compound 3.16 µM, first compound 0.0316 µM): 0.35%
viability, T/C (second compound 3.16 µM, first compound 0.1 µM): 0.27%
viability, T/C (second compound 3.16 µM, first compound 0.316 µM): 0.26%
viability, T/C (second compound 3.16 µM, first compound 1 µM): 0.39%
viability, T/C (second compound 10 µM, first compound 0.00316 µM): 1.22%
viability, T/C (second compound 10 µM, first compound 0.01 µM): 0.49%
viability, T/C (second compound 10 µM, first compound 0.0316 µM): 0.42%
viability, T/C (second compound 10 µM, first compound 0.1 µM): 0.48%
viability, T/C (second compound 10 µM, first compound 0.316 µM): 0.43%
viability, T/C (second compound 10 µM, first compound 1 µM): 0.61%

IC50 (second compound 0.1 µM): 201 nM
IC50 (second compound 0.316 µM): 249 nM
IC50 (second compound 1 µM): 179 nM
IC50 (second compound 3.16 µM): 162 nM
IC50 (second compound 10 µM): 162 nM
Compound: Cc1nc(N2CCC3(CC2)COC(C)C3N)c(CO)nc1Sc1ccnc(N)c1Cl (stereo not given) + Cc1c(S(C)(=O)=O)c(-c2cc(F)cc(N3CCN(c4ccc(NS(=O)(=O)c5ccc(NC(CCN6CCC(C(=O)OCCCP(=O)(O)O)CC6)CSc6ccccc6)c(S(=O)(=O)C(F)(F)F)c5)cc4)CC3)c2)c(-c2ccc(Cl)cc2)n1C(C)C
viability, T/C [1]: 97.2%
viability, T/C [2]: 90.9%
viability, T/C [3]: 76.8%
viability, T/C [4]: 37%
viability, T/C (second compound 0.1 µM, first compound 0.949 µM): 1.43%
viability, T/C (second compound 0.1 µM, first compound 3 µM): 0.95%
viability, T/C [5]: 108%
viability, T/C [6]: 99.8%
viability, T/C [7]: 88.9%
viability, T/C [8]: 44.1%
viability, T/C (second compound 0.316 µM, first compound 0.949 µM): 1.42%
viability, T/C (second compound 0.316 µM, first compound 3 µM): 1.39%
viability, T/C [9]: 102%
viability, T/C [10]: 94%
viability, T/C [11]: 81.6%
viability, T/C [12]: 24.7%
viability, T/C (second compound 1 µM, first compound 0.949 µM): 0.73%
viability, T/C (second compound 1 µM, first compound 3 µM): 1.11%
viability, T/C [13]: 95.6%
viability, T/C [14]: 93.4%
viability, T/C [15]: 78.7%
viability, T/C [16]: 17%
viability, T/C (second compound 3.16 µM, first compound 0.949 µM): 1.15%
viability, T/C (second compound 3.16 µM, first compound 3 µM): 0.34%
viability, T/C [17]: 106%
viability, T/C [18]: 103%
viability, T/C [19]: 82%
viability, T/C [20]: 12.9%
viability, T/C (second compound 10 µM, first compound 0.949 µM): 0.64%
viability, T/C (second compound 10 µM, first compound 3 µM): 0.34%

IC50 (second compound 0.1 µM): 63.4 nM
IC50 (second compound 0.316 µM): 56.5 nM
IC50 (second compound 1 µM): 50.8 nM
IC50 (second compound 3.16 µM): 38.8 nM
IC50 (second compound 10 µM): 43.3 nM
Compound: NC(=O)C(=Cn1cnc(-c2cc(C(F)(F)F)cc(C(F)(F)F)c2)n1)c1cncnc1 + Cc1c(S(C)(=O)=O)c(-c2cc(F)cc(N3CCN(c4ccc(NS(=O)(=O)c5ccc(NC(CCN6CCC(C(=O)OCCCP(=O)(O)O)CC6)CSc6ccccc6)c(S(=O)(=O)C(F)(F)F)c5)cc4)CC3)c2)c(-c2ccc(Cl)cc2)n1C(C)C
viability, T/C (second compound 0.1 µM, first compound 0.000949 µM): 100%
viability, T/C (second compound 0.1 µM, first compound 0.003 µM): 101%
viability, T/C [1]: 86.3%
viability, T/C [2]: 62.6%
viability, T/C [3]: 43.7%
viability, T/C [4]: 6.26%
viability, T/C (second compound 0.316 µM, first compound 0.000949 µM): 111%
viability, T/C (second compound 0.316 µM, first compound 0.003 µM): 103%
viability, T/C [5]: 89.8%
viability, T/C [6]: 64.9%
viability, T/C [7]: 37.4%
viability, T/C [8]: 4.18%
viability, T/C (second compound 1 µM, first compound 0.000949 µM): 104%
viability, T/C (second compound 1 µM, first compound 0.003 µM): 103%
viability, T/C [9]: 88.5%
viability, T/C [10]: 67.4%
viability, T/C [11]: 30.2%
viability, T/C [12]: 2.94%
viability, T/C (second compound 3.16 µM, first compound 0.000949 µM): 98.1%
viability, T/C (second compound 3.16 µM, first compound 0.003 µM): 93.7%
viability, T/C [13]: 84.4%
viability, T/C [14]: 60%
viability, T/C [15]: 19.2%
viability, T/C [16]: 2.31%
viability, T/C (second compound 10 µM, first compound 0.000949 µM): 105%
viability, T/C (second compound 10 µM, first compound 0.003 µM): 103%
viability, T/C [17]: 97.3%
viability, T/C [18]: 68%
viability, T/C [19]: 12.1%
viability, T/C [20]: 0.73%
